Where two headings read alike, the source gives them in different places.
How the values were obtained:
[1] = target: T1, tau (UniProt P10636+P40338, P618L); assay: Intracerebroventricular infusion in 3xTg-AD mice, brain tau by Western blotting and immunohistochemistry; format: in vivo, mouse; conditions: 9.5 m-old 3xTg-AD mice; intracerebroventricular 5 μL, 200 μM; 48 h
T1 construct: tissue stock number 34830; host or cells: hippocampus and cortex of 9.5 m-old 3xTg-AD mice
Experimental: (§1) For brain surgery and stereotaxic cerebroventricular drug delivery, the mice were placed in a stereotaxic apparatus and anesthetized with 2% isoflurane (RWD Life Science, R510-22) through a nose cone (300-500 mL/min, RWD Life Science, China, R500). The scalp was incised along the midline between the ears after the mice were sterilized with iodophors and 75% (vol/vol) alcohol. The holes were drilled stereotaxically in the skull at a cerebroventricular location (posterior 0.22 mm, lateral 0.9 mm, and ventral 2.3 mm relative to bregma). Using a microinjection system (Shenzhen RWD Life Technology Co., Ltd; RWD 69100), C004019 (5 μL, 200 μM) was infused at a rate of 0.5 μL/min. […]
The cells or hippocampal/cortex tissues were homogenized for ~ 30 min on ice in buffer [50 mM Tris·HCl pH 7.4-7.5, 100 mM NaCl, 1% (vol/vol) Triton X-100, 5 mM EDTA, 1:100 PMSF, 1:1,000 protease inhibitor cocktail containing 4-(2-Aminoethyl)-benzenesulfonyl fluoride hydrochloride, aprotinin, bestatin, leupeptin, E-64, and pepstatin A stored at 4 °C], and then centrifuged at 12,000 × g at 4 °C for 20 min. The supernatant was collected and the protein levels were analyzed using bicinchoninic acid (BCA, KF016, Sigma-Aldrich) by following the manufacturer's instruction (served as soluble protein). […] Immunoreactive bands were quantitatively analyzed by Image J2x software. […]

[2] = target: tau (Mus musculus, UniProt P10637); assay: Single-dose subcutaneous administration in wild-type mice, brain tau by Western blotting; format: in vivo
tau (Mus musculus, UniProt P10637), sequence (P10637 114-430 isoform P10637-2 limits assumed): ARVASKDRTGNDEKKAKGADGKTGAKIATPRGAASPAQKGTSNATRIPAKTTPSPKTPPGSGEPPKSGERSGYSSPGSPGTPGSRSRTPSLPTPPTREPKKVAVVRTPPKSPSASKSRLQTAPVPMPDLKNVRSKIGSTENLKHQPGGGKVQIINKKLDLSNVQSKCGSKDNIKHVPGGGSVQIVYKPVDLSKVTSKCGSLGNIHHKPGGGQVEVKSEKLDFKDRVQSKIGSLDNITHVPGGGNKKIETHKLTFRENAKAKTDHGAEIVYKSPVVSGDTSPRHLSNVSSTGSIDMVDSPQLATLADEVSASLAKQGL
Experimental: For brain surgery and stereotaxic cerebroventricular drug delivery, the mice were placed in a stereotaxic apparatus and anesthetized with 2% isoflurane (RWD Life Science, R510-22) through a nose cone (300-500 mL/min, RWD Life Science, China, R500). The scalp was incised along the midline between the ears after the mice were sterilized with iodophors and 75% (vol/vol) alcohol. The holes were drilled stereotaxically in the skull at a cerebroventricular location (posterior 0.22 mm, lateral 0.9 mm, and ventral 2.3 mm relative to bregma). Using a microinjection system (Shenzhen RWD Life Technology Co., Ltd; RWD 69100), C004019 (5 μL, 200 μM) was infused at a rate of 0.5 μL/min. The needle was kept in place for 10 min before withdrawal. After the skin was sutured, the mice were placed on a heater for analepsia. For subcutaneous injection, C004019 was diluted with 20% HP-β-CD and injected under the skin on the back neck to reach a final concentration of 3 mg/kg (low dose) or 15 mg/kg (high dose).
The cells or hippocampal/cortex tissues were homogenized for ~ 30 min on ice in buffer [50 mM Tris·HCl pH 7.4-7.5, 100 mM NaCl, 1% (vol/vol) Triton X-100, 5 mM EDTA, 1:100 PMSF, 1:1,000 protease inhibitor cocktail containing 4-(2-Aminoethyl)-benzenesulfonyl fluoride hydrochloride, aprotinin, bestatin, leupeptin, E-64, and pepstatin A stored at 4 °C], and then centrifuged at 12,000 × g at 4 °C for 20 min. The supernatant was collected and the protein levels were analyzed using bicinchoninic acid (BCA, KF016, Sigma-Aldrich) by following the manufacturer's instruction (served as soluble protein). The pellet was further incubated with 8% (wt/vol) SDS buffer at 4 °C and then treated by ultrasonic wave to reach a complete resuspension. The suspension was spun (18,000 × g, 4 °C for 20 min) and the supernatant collected (served as insoluble fraction). The supernatant of different faction was respectively mixed with loading buffer (3:1, vol/vol) containing 200 mM Tris-HCl, pH 6.8, 8% SDS, 40% glycerol, and boiled for 10 min. For Western blotting, the proteins were separated by 10% SDS-polyacrylamide gel via electrophoresis for about 2 h and transferred to nitrocellulose membranes ([…]) for 1 h. The membranes were blocked with 5% (wt/vol) BSA dissolved in PBS for 1 h and incubated with primary antibodies overnight at 4 °C in cold room. Membranes were then incubated with a secondary antibody for 1 h at room temperature and visualized using the ECL Imaging System (610007-8Q, Clinx Science Instruments Co., Ltd). Immunoreactive bands were quantitatively analyzed by Image J2x software.

[3] = Pharmacokinetics study, plasma and brain concentration by LC-MS/MS; format: in vivo; conditions: male, mouse, sc, C57BL/6 mice, subcutaneous 3 mg/kg
Experimental: Male C57BL/6 mice (age of 6-8 weeks with bodyweight 21-23 g; N = 24) were purchased from JH Laboratory Animal Co. LTD. Subcutaneous injection dosing solution was prepared by diluting C004019 stock solution in 20% HP-β-CD in saline. The animals were administrated with C004019 at a dose of 3 mg/kg (10 mL/kg) via subcutaneous injection (N = 3 per timepoint), and then were anaesthetized via isoflurane at the designated time points, followed by collection of approximately 110 µL of blood sample into EDTA-2K tubes via retro-orbital puncture or cardiac puncture for terminal bleeding. The brain samples were collected at the designated time points after blood collection. All the samples were first maintained in wet ice and then the blood samples were centrifuged (2000 g, 4 °C, 5 min) to obtain plasma within 15 minutes post sampling. Afterwards, all the plasma samples and brain samples were stored at approximately -70 °C until analysis. The concentration of C004019 in plasma and brain was determined using liquid chromatograph mass spectrometry/mass spectrometry (LC-MS/MS) with a UPLC/MS-MS-015 (QTRAP 5500).

[4] = target: T2, MAP2 (Mus musculus, UniProt P20357); assay: MAP2 protein level after intracerebroventricular infusion (specificity); format: in vivo; conditions: 4 m-old wild-type and 9.5 m-old 3xTg-AD mice; intracerebroventricular 5 μL, 200 μM
T2 construct: from tissue; host or cells: hippocampus and cortex of wild-type and 3xTg-AD mice
T2 sequence (P20357 whole entry, the tested form may be a part): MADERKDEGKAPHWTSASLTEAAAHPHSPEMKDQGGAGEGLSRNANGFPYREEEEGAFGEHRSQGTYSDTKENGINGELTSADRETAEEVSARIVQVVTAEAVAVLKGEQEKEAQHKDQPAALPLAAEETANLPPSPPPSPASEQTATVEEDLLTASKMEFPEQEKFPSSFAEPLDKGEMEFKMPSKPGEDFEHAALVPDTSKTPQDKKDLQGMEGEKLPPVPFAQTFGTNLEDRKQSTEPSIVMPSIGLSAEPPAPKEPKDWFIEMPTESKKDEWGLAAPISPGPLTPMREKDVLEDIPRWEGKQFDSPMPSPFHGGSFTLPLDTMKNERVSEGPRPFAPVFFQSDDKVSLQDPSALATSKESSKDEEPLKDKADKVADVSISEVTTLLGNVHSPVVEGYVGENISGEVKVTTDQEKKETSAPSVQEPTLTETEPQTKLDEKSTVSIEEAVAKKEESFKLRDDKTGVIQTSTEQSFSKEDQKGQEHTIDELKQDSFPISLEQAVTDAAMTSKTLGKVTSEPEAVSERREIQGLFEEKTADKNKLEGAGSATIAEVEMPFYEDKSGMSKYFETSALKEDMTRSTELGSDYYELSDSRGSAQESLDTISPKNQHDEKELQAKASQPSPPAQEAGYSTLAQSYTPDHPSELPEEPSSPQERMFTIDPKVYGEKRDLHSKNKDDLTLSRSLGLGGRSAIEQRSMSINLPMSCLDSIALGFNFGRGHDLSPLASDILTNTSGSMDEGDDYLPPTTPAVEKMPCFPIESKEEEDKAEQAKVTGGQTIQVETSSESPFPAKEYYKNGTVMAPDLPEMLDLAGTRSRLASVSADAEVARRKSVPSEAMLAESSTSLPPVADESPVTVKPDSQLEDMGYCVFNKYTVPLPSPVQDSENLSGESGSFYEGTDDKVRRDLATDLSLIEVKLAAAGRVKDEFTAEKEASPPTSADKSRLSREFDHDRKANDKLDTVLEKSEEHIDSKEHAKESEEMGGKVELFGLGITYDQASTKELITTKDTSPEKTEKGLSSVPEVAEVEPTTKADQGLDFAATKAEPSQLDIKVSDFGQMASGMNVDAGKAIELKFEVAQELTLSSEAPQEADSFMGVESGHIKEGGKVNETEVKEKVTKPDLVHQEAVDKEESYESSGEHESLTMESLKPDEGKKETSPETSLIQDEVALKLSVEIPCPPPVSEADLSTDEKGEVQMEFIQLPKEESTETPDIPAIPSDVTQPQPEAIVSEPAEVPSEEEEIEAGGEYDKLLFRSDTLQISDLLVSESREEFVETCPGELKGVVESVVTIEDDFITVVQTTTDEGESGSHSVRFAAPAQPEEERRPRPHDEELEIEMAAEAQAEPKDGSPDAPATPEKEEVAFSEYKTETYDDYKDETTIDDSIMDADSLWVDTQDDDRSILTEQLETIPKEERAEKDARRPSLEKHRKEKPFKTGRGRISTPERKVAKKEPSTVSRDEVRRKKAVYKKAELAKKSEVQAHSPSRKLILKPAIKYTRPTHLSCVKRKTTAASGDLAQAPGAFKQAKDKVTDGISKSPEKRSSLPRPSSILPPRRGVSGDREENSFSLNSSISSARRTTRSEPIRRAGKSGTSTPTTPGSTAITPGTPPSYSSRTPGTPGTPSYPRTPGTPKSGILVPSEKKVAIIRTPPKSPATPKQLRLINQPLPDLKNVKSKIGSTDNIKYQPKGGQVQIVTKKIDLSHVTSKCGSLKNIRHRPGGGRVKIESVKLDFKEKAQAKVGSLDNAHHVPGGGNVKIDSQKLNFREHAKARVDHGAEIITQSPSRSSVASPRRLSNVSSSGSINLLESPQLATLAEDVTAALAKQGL
Experimental: as §1
The cells or hippocampal/cortex tissues were homogenized for ~ 30 min on ice in buffer [50 mM Tris·HCl pH 7.4-7.5, 100 mM NaCl, 1% (vol/vol) Triton X-100, 5 mM EDTA, 1:100 PMSF, 1:1,000 protease inhibitor cocktail containing 4-(2-Aminoethyl)-benzenesulfonyl fluoride hydrochloride, aprotinin, bestatin, leupeptin, E-64, and pepstatin A stored at 4 °C], and then centrifuged at 12,000 × g at 4 °C for 20 min. The supernatant was collected and the protein levels were analyzed using bicinchoninic acid (BCA, KF016, Sigma-Aldrich) by following the manufacturer's instruction (served as soluble protein). […] Immunoreactive bands were quantitatively analyzed by Image J2x software.

T1 sequence (P10636 1-383 isoform P10636-6 P243L): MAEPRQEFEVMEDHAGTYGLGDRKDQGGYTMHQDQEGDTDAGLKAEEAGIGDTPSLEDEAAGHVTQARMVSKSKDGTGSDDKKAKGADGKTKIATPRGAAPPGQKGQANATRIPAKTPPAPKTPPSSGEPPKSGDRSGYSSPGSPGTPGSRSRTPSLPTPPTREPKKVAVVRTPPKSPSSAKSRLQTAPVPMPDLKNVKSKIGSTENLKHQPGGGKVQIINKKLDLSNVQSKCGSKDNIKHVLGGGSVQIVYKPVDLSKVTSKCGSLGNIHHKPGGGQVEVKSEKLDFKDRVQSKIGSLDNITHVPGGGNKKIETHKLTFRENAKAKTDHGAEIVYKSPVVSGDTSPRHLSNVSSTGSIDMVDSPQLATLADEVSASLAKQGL
T1 sequence (P40338 whole entry, the tested form may be a part): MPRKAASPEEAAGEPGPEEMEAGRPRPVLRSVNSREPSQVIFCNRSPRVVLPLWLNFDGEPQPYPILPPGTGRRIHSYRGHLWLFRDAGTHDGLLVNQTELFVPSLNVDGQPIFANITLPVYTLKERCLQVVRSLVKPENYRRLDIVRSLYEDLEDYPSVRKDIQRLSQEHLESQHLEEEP
T1 sequence (P83940 whole entry partner, the tested form may be a part): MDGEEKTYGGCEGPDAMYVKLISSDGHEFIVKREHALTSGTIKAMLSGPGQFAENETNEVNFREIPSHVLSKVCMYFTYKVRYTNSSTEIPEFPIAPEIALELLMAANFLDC
T1 sequence (P62869 whole entry partner, the tested form may be a part): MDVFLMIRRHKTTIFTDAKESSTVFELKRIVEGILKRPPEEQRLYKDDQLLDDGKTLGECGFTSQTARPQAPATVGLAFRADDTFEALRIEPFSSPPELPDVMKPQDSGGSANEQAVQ

SMILES: CC(=O)N1CCCN(c2nc(NCCc3cccs3)nc(N(C)CC(=O)NCCOCCOCCOCC(=O)N[C@H](C(=O)N3C[C@H](O)C[C@H]3C(=O)NCc3ccc(-c4scnc4C)cc3)C(C)(C)C)n2)CC1 [C004019]
- total tau and p-tau levels in hippocampus and cortex [1]: reduced total tau and the p-tau levels
- duration of tau reduction in the brain ([2]; 4 m-old wild-type mice, single-dose subcutaneous 3 mg/kg): sustained tau reduction till 8 days
- tau level in hippocampus and cortex ([2]; 4 m-old wild-type mice, subcutaneous 3 mg/kg, 24 h, compared with 15 mg/kg): much more significant tau reduction than that of high dose
- tau level in hippocampus and cortex ([2]; 4 m-old wild-type mice, subcutaneous 15 mg/kg, 24 h and 48 h): Significant tau reduction
- tau reduction ([2]; wild-type mice, 8 days after one treatment): 50%
- brain-to-plasma Cmax ratio ([3]; brain/plasma, read-out: ratio of brain tissue maximal concentration to the plasma maximal concentration (Kpuu value)): 0.00866
- AUC(0-inf) ([3]; brain, read-out: AUCINF in brain): 12.6 ng·h/mL
- AUC(0-t) ([3]; brain, read-out: AUClast in brain): 8.42 ng·h/mL
- Cmax ([3]; brain, read-out: Cmax in brain (maximal brain concentration)): 10.8 ng/mL
- MRT inf ([3]; brain, read-out: MRTINF in brain): 1.8 h
- half-life ([3]; brain, read-out: T1/2 in brain (converted)): 1.29 h
- Tmax ([3]; brain, read-out: Tmax in brain): 0.167 h
- AUC(0-inf) ([3]; plasma, read-out: AUCINF in plasma): 1800 ng·h/mL
- AUC(0-t) ([3]; plasma, read-out: AUClast in plasma): 1190 ng·h/mL
- Cmax ([3]; plasma, read-out: Cmax in plasma): 1250 ng/mL
- MRT inf ([3]; plasma, read-out: MRTINF in plasma): 1.87 h
- half-life ([3]; plasma, read-out: T1/2 in plasma (converted)): 1.33 h
- Tmax ([3]; plasma, read-out: Tmax in plasma): 0.167 h
- protein level of MAP2 [4]: did not change the level of MAP2

— publication PMC8039949, “A novel small-molecule PROTAC selectively promotes tau clearance to improve cognitive functions in Alzheimer-like models” (Theranostics, 2021)
